From patent EP4670723A1, “PI[…] USE IN THE TREATMENT OF OSTE[…] NON-HUMAN MAMMALS” (Vetbiolix, priority 2024, dated 2025)
Like-named read-outs stand apart in the source and are kept apart here.

Tests used:
[1] = system: patients with osteoarthritis of the knee; conditions: 1000 µg (14.5 µg/kg) twice daily orally for 12 weeks; trial discontinued; cited from earlier work
[2] = system: dogs with osteoarthritis (OA); assay: multicentric, non-comparative, randomized proof of concept study, 90 days oral treatment of dogs with osteoarthritis; assay type: in vivo, dog; conditions: for Activity: Dog
Procedure: This was a multicentric, non-comparative, randomized proof of concept study in which 15 dogs with osteoarthritis (OA) were treated with piclidenosone (VBX1000) for 90 days.
[…] Two intermediate visits were included for clinical examination and for calculating OA scores.
The primary objective of this study was to assess the efficacy of piclidenosone to reduce OA symptoms severity after 90 days of treatment. For that purpose, OA symptoms and motility were scored by the owner using Liverpool Osteoarthritis in Dogs (LOAD) questionnaire at Day-0, Day-30, Day-60 and Day-90. […]
• Inclusion criteria • ∘ The owner approved and signed the informed consent form prior to the participation of his/her dog in the study; • ∘ Dog older than 18 months; • ∘ Dog with a Body Condition score lower than 8 (on a 9 point-scale); • ∘ Dog with a symptomatic unifocal or multifocal osteoarthritis, characterized by the presence of osteophyte on at least one site on radiographic views; • ∘ LOAD mobility total score of ≥ 11 at visit V2 (Day 0). • Exclusion criteria • ∘ Animals intended for breeding or known to be pregnant or lactating; • ∘ Dog with severe OA which requires concomitant treatment; • ∘ Presence of complete cranial cruciate ligament rupture; • ∘ Breeds at risk of MDR1 gene mutation (MDR1 genetic test required before screening of a dog from known affected breed: Collie, Border Collie, Australian and English Shepherd, German Shepherd, Long-Haired Whippet, Shetland Sheepdog); • ∘ History of orthopaedic surgery including complete cranial cruciate ligament rupture surgically treated with Tibial Tuberosity Advancement (TTA) or Tibial Plateau Leveling Osteotomy (TPLO) or elbow debridement within 3 months prior to inclusion; • ∘ Presence of musculoskeletal lesions (e.g., glycogenosis, primary muscular dystrophy) or untreated neoplasia prior to inclusion; • ∘ Presence of concurrent systemic disease such as neurologic, hepatic, renal or cardiac disease; • ∘ Dog under physical therapy (including acupuncture) for orthopaedic indication unless a 1-week wash-out period is applied prior to visit V1 (between D-21 and D-14); • ∘ Dog treated with methotrexate; • ∘ Dog treated with nonsteroidal anti-inflammatory drugs unless a 2-weeks wash-out period is applied prior to visit V1 (between D-21 and D-14); • ∘ Dog that received mavacoxib or enflicoxib within 3 months prior to visit V1 (between D-21 and D-14); • ∘ Dog treated with short-acting corticosteroids (i.e., hydrocortisone) unless a 2-weeks wash-out period is applied prior to visit V1 (between D-21 and D-14); • ∘ Dog treated with intermediate-acting corticosteroids (i.e., prednisone, prednisolone, methylprednisolone) unless a 4-weeks wash-out period is applied prior to visit V1 (between D-21 and D-14); • ∘ Dog treated with long-acting corticosteroids (i.e., dexamethasone) unless a 12-weeks wash-out period is applied prior to visit V1 (between D-21 and D-14); • ∘ Dog treated with any intra-articular injection in the joint under study within 2 months prior to visit V1 (between D-21 and D-14); • ∘ Dog treated with a subcutaneous injection of bedinvetmab unless a 4-week wash-out periods is applied prior to visit V1 (between D-21 and D-14); • ∘ Dog treated with OA modifying diet and/or food supplements (i.e., glycosaminoglycans, glucosamine and chondroitin sulphate or other) unless its administration has been regular during the month preceding visit V1 (between D-21 and D-14) and will be continued during the study duration; • ∘ Dog unable to walk on a leash. […]

[3] = system: dogs with osteoarthritis (OA); assay: as above; assay type: in vivo, dog
[4] = system: monoidoacetate (MIA) experimental rat models; conditions: cited from earlier work
human patients = conditions: cited from earlier work; for Activity: Human
[5] = 100 µg/kg bid, 90 days vs baseline
[6] = oral, 100 µg/kg body weight twice a day

In the case of CNC(=O)[C@H]1O[C@@H](n2cnc3c(NCc4cccc(I)c4)ncnc32)[C@H](O)[C@@H]1O [piclidenoson, 1-Deoxy-1-[6-[[(3-iodophenyl)methyl]amino]-9H-purin-9-yl]-N-methyl-β-D-ribofuranuronamide], the efficacy [1] is listed as “lack of efficacy”, the “pain score (Visual Analog Score or VAS)” value ([2]; 100 µg/kg bid group, 90-day treatment period) is listed as “not significantly improved” and the “proportion of patient with low NRS1 (lameness score)” value [2, 5] is listed as “non-significant increase”. The “evidence for efficacy in the treatment of osteoarthritis in dogs” value ([2]; 100 µg/kg twice a day orally for 90 days) was “do not provide evidence for efficacy”, the “proportion of patient experiencing clinically meaningful improvement of LOAD score” value ([2]; 500 µg/kg bid group as compared to 100 µg/kg bid, decrease in LOAD score ≥4, Day-90 vs inclusion) was “higher” and the “pain score (Visual Analog Score or VAS)” value ([2]; 500 µg/kg bid group, statistical significance from Day-60 up to end of treatment) was “significant decrease”. The “change in LOAD score vs that obtained after ligament surgery in dogs with ligament rupture” value ([2]; 500 µg/kg bid, after 90 days) was “comparable”, the Activity ([2]; Bid Dose 100 µg/kg) was “No” and the Activity ([2]; Bid Dose 500 µg/kg) was “Yes”. For the same compound, the “proportion of patients showing VAS improvement (Δ≤-1)” value ([2]; end of treatment period, 500 µg/kg bid group as compared to 100 µg/kg bid group) was “superior”, the “temporal evolution of mean LOAD score” value ([2]; group 1, 100 µg/kg bid, observed at Day-30, totally disappeared at Day-60 and Day-90) was “transient decrease” and the “temporal evolution of mean LOAD score” value ([2]; group 2, 500 µg/kg bid, statistical significance from Day-60 to end of treatment) was “time-dependent decrease”. For the same compound, the “Active Dose in dog” value ([2]; proof-of-concept trial in dog with osteoarthritis, bid) was 0.5 mg/kg, the “clinical symptoms of osteoarthritis in dog” value ([2]; repeated oral administration at dose ≥ 500 µg/kg bid) was “improves clinical symptoms” and the tolerance ([2]; throughout the study, 100 and 500 µg/kg bid for 90 days) was “well tolerated with no treatment related SAE and no death”. For the same compound, the “proportion of patient with low NRS2 (pain score)” value [3, 5] was “non-significant increase”, the LOAD score ([3]; 500 µg/kg bid oral, Day-90, N=9, baseline 22.9±7.2 at Day-0, p<0.01, primary endpoint met) was 14.9±10.6 and the “proportion of patients with low scores, NRS2 (pain score)” value ([3]; 500 µg/kg bid, 90 days vs baseline, p<0.05 Fisher exact test) was “reached statistical significance”. For the same compound, the “proportion of patients with low scores, NRS1 (lameness score)” value ([3]; 500 µg/kg bid, 90 days vs baseline, statistical significance) was “not for NRS1”, the Activity ([4]; Rat, Bid Dose 100 µg/kg) was “Yes” and the NF-kappaB signaling pathway [4, 6] was “deregulated”. The “apoptosis of inflammatory cells” value [4, 6] was “induced apoptosis”, the cartilage protection [4, 6] was “cartilage protective agent” and the Activity (human patients; Bid Dose 2000 µg (29 µg/kg)) was “Yes”. The Activity (human patients; Bid Dose 4000 µg (57 µg/kg)) was “Yes” and the “Active Dose in Human” value (human patients; from clinical Phase 2 trials, assuming body weight of 70 kg) was 0.029 mg/kg.
